Consider one molecule from patent publication US6887882B2, “Pharmaceutical compositions comprising chelidonine or derivatives thereof” (priority 2002, dated 2005).

In series [1] the target is T1, hKv1.5 channel (Homo sapiens, UniProt P22460).
T1 construct: expressed in transfected cells; host or cells: mouse Ltk- cells (pMSVneo vector, G418 selection)
Briefly: Voltage-dependent block of hKv1.5 channel currents expressed in Ltk-cells. Format: cell-based. The note with it: 10 μM. From the text:
To quantify the voltage-dependent block of chelidonine (compound 1), the relative steady state current, Ichelidonine/Icontrol was plotted as a function of membrane potential (FIG. 2). The steady-state currents were obtained at the end stage of 250 ms depolarizing pulses, while increasing the membrane voltage by 10 mV from −80 to +60 mV. The dotted line denotes the activation curve of hKv1.5 channel current expressed in Ltk-cells.

For series [2], the target named is T1, hKv1.5 channel. The series can be described thus: Channel state-dependency of hKv1.5 block (tail currents). In kind it is cell-based. The settings on record: 10 μM; tail currents at -50 mV after +50 mV pulse. The source says:
We tested the channel state-dependency of hKv1.5 block by chelidonine (FIG. 3).
Under control conditions, the tail currents were rapidly deactivated.

A further series concerns rabbit atrial tissue. Briefly: Frequency-dependent effects on action potentials of rabbit atrial tissue (APD90). In kind it is cell-based. The settings on record: 1 μM, of control APD90, n=5. Here is the method: Action potentials in rabbit atrial tissue were recorded according to the method described in thesis by Kwak, et al. (A newly synthesized benzopyran derivatives, activates the cardiac ATP-sensitive K^+ channel. J Pharmacol Exp Ther 1995, 275: 807-812).
Male New Zealand white rabbits weighing about 2 kg were stunned with a blow on the head and hearts were rapidly excised and transferred to a dissection bath filled with Tyrode's solution saturated with 97% O2 and 3% CO2 gas mixture and each dissected tissue was mounted horizontally in a narrow channel of a tissue chamber and continuously superfused with the Tyrode's solution at 37° C. The action potentials were elicited by stimulating the cardiac cells with square pulses (1˜5 Hz, 1-ms duration, 20-30% above threshold voltage) by a stimulator. […] Tracings on the oscilloscope screen were photographed on a 35-mm film and also recorded on a physiograph (RS 3400, Gould, Cleveland, Ohio). APD90 was used for the comparison of action potential durations. APD90 represents the action potential duration at 90% repolarization, relative to the action potential duration at maximum 100% depolarization. Images on the oscilloscope screen were captured on Polaroid camera.
We tested whether the effect of chelidonine on action potentials of rabbit atrial myocytes are frequency-dependent or not.
The relative action potential durations were normalized to the APD90 value in the absence of chelidonine at each frequency. At the stimulus frequency of 1, 2, 3, 4 and 5 Hz, 1 μM chelidonine increased APD90 by 13.0±8.1% (n=5), 14.5±7.9% (n=5), 16.5±2.2% (n=5) 28.2±0.4% (n=5) or 33.0±0.3 1% (n=5) of the control APD90 in the absence of chelidonine at each frequency, respectively.

Series [3] has as its system K+ channel current in human atrial myocytes. The series can be described thus: Effect on the K+ current in human atrial myocytes (whole cell patch clamp). In kind it is cell-based. Here is the method: Currents in human atrial myocytes and cell lines were recorded by using the whole cell configuration of the gigaohm-seal patch clamp techniques (Kwak, et al., Phosphorylation is required for alteration of Kv1.5 K^+ channel function by the Kvbeta 1.3 subunit. J Biol Chem 1999, 274: 25355-25361). First, electrical signals were amplified with a patch clamp amplifier (Axon Instruments, Axopatch-1D, Foster, USA). Currents were digitized by a signal converter (Digidata 1200, Axon Instruments) and stored on the hard disk of a computer. The micropipette with a resistance of 1˜2MΩ (Kimax-51, 1.5=14 1.8×10 mm) for current recording, was pulled out by a 2-stage pipette puller (Narishige, PP-83). The intracellular pipette-filling solution for whole cell mode contained 100 mM KCl, 10 mM HEPES, 5 mM K4BAPTA, 5 mM K2ATP and 1 mM MgCl2 (pH 7.2). The extracellular solution contained 130 mM NaCl, 4 mM KCl, 1.8 mM CaCl2, 1 mM MgCl2, 10 mM HEPES and 10 mM glucose (pH 7.35).
Isolation of human atrial myocytes was carried out by the Wang, et al.'s method (Effects of flecainide, quinidine, and 4-aminopyridine on transient outward and ultrarapid delayed rectifier currents in human atrial myocytes. J Pharmacol Exp Ther 1995, 272: 184-196). Specimens of human right atrial appendage were obtained from the hearts of patients undergoing cardiopulmonary bypass surgery. […]
(In general: The patch-clamp technique gives a direct electrical read-out from membranes.)

The next series relates to mouse. The note with it: intravenously; cited from earlier work.

T1 sequence (P22460 whole entry): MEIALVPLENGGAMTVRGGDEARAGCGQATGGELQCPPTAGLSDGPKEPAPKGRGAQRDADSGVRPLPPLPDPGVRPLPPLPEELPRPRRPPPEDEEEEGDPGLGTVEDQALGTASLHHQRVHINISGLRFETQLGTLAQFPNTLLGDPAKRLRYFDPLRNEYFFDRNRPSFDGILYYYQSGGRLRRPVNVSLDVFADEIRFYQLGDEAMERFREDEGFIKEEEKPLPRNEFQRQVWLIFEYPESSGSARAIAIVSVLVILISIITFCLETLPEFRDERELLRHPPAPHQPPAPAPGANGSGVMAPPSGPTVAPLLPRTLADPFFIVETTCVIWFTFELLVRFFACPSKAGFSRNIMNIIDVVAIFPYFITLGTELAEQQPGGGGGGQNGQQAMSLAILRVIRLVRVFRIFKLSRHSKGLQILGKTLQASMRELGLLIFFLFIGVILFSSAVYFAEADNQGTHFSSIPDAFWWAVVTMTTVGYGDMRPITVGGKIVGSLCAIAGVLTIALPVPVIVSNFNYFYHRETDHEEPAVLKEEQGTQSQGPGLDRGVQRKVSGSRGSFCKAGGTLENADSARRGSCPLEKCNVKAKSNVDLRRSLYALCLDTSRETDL

By inhibition is commonly meant the percentage by which the read-out fell short of the control. With `CN1Cc2c(ccc3c2OCO3)[C@@H]2[C@H]1c1cc3c(cc1C[C@@H]2O)OCO3` [Compound 1, [5bR-(5bα,6β,12bα)]-5b,6,7,12b,13, 14-hexahydro-13-methyl[1,3]benzodioxolo[5,6c]-1,3-dioxolo[4,5-i]phenanthridin-6-ol], the “voltage-dependence of block” value on hKv1.5 channel [1] (between 0 mV and +60 mV) is recorded as “weak voltage-dependence”; on hKv1.5 channel [1] (between -30 mV and 0 mV), “strong voltage-dependence”. In addition, the “δ value (Woodhull equation)” value on hKv1.5 channel [1] (between 0 mV and +60 mV, n=7) was found to be 0.16±0.01. The “channel state-dependency of hKv1.5 block” value on hKv1.5 channel [2] is given as “acts as an open channel blocker”. The “increase of APD90” value in the series with rabbit atrial tissue (stimulus frequency 1 Hz) came out at 13.0±8.1%; in the series with rabbit atrial tissue (stimulus frequency 2 Hz), 14.5±7.9%; with rabbit atrial tissue (stimulus frequency 3 Hz), 16.5±2.2%; in the series with rabbit atrial tissue (stimulus frequency 4 Hz), 28.2±0.4%. Further, the “effect on peak amplitude of outward K+ current” value in series [3] (10 μM) is “decreased the peak amplitude”. Besides, the inhibition at 10 µM in series [3] (compared to control, n=7, read-out: inhibition of steady-state currents at the end of the depolarizing pulse of +50 mV) is 41 ± 5%. In addition, in the series with mouse, the toxicity is 34.6 ± 2.44 mg/kg.
